Results reported in PMC11078216, “Discovery of potent and selective activity-based probes (ABPs) for the deubiquitinating enzyme USP30” (RSC Chemical Biology, 2024).

Columns and labels:
Assay in all cases: ABPP chemical proteomics (LC-MS/MS) in HEK293T cells
Type in all cases: cell-based
PARK7 = target: T1, PARK7 (Homo sapiens, UniProt Q99497); conditions: 30 nM, 10 min
T1 construct: endogenous in cells; host or cells: HEK293T
Method: (§1) To explore the selectivity of IMP-2587 and IMP-2586 across the whole proteome, we performed quantitative activity-based protein profiling (ABPP) in HEK293T cells following treatment with IMP-2587 or IMP-2586 (Fig. 3a). After ABP incubation, cells were lysed, and probe-labelled proteins were ligated to biotinylated capture reagents.[27] […] USP30 was outcompeted by corresponding parent inhibitors for each ABP (Fig. 5b and d and Tables S3 and S5, ESI ^†), confirming the high potency and rapid engagement of IMP-2587 and IMP-2586 in cells. […] DESI1 and DESI2 are small ubiquitin-related modifier (SUMO) proteases,[3,29–32] and IMP-2587 and IMP-2586 may offer a starting point for future development of DESI ABPs. […]
(§2) d) Live cell probe incubation, lysate click chemistry and precipitation 6-well HEK293T cells were incubated with media containing compounds ABP 2 and ABP 4 at indicated concentrations for 1 h at 37 °C. The cells were washed with PBS and lysed with lysis buffer (50 μL (1% (v/v) Triton X-100, 0.1% (w/v) sodium dodecyl sulfate (SDS), EDTA-free complete protease inhibitor cocktail (1×, Roche) in PBS on ice for 10 min. The lysates were scraped and transferred to corresponding Lo-Bind Eppendorfs. Each lysate was sonicated for 1 minute, and the samples centrifuges at 5,000 x g at 4 °C for 5 minutes to pellet insoluble cellular debris. The supernatant was collected, and protein concentration was determined using the DC Protein Assay (Bio-Rad) as per manufacturer’s instructions, and normalised to lowest concentrated sample (e.g. 1 mg/mL, using lysis buffer). The following “click mixture” was prepared separately, preparing 6 μL for every 100 μL of […]
(§3) Capture reagent (AzRB/AzT for ABP 2, YnT/YnB for ABP 4 10 mM in DMSO, 1 vol; final concentration […]
(§4) CuSO4 (50 mM in water, 2 vol; final concentration in reaction 1 mM)
(§5) TCEP (50 mM in water, 2 vol; final concentration in reaction 1 mM)
(§6) TBTA (10 mM in DMSO, 1 vol; final concentration in reaction 100 µM)
(§7) The click mixture was vortexed and incubated at room temperature for 2 min before 6 μL of the mixture was added to every 100 μL of lysate. The reaction mixtures were shaken at room temperature for 1 h before being quenched with EDTA (500 mM in H2O) to a final concentration of 10 mM.
(§8) Proteins were precipitated by adding H2O (1 vol), MeOH (2 vol) and CHCl3 (0.5 vol), vortexing briefly then centrifuging at 17,000 × g for 5 min. The top H2O/MeOH layer was discarded and the middle layer of protein pellet and lower CHCl3 layer retained. The suspension was washed with MeOH (300 μL), and sonicated to break up the pellet. The proteins were pelleted by centrifugation at 10,000–17000 × g for 5–10 min or until a compact pellet was formed. The protein pellet was washed once more with MeOH (1 mL). The pellet was resuspended by sonicating and completely dissolving in 1% (w/v) SDS in PBS (to 5 mg/mL protein) before being made up to 1 mg/mL protein with PBS.
(§9) The lysate samples (10-20 μg) were mixed with 4× Laemmli sample loading buffer (250 mM Tris -HCl pH 6.8, 30% (v/v) glycerol, 10% (w/v) SDS, 0.05% (w/v) bromophenol blue) supplemented with 20% v/v β-mercaptoethanol (BME) and boiled for 10 min at 95 °C. The resulting protein samples were separated according to the protocol in section 3.2.c. Gel were imaged on a Typhoon imager (GE Healthcare; λEx 532 nm, λEm 575 nm for TAMRA. For protein loading quantification, gels were stained with Coomassie blue staining solution overnight, rinsed with water and imaged on an ImageQuant™ LAS 4000 imager (GE Healthcare). f) Neutravidin biotin enrichment (Affinity pull-down)
(§10) Click chemistry and precipitation steps were carried out as described in section 3.2.d, on at least 400ug of protein per sample. The pellet was resuspended by sonicating and completely dissolving in 1% (w/v) SDS in HEPES 50 mM pH 8.0, before being made up to 1 mg/mL protein with HEPES 50 mM pH 8.0 to […]
(§11) achieve a final concentration of 0.2% SDS. 20uL of each samples was collected as TL (Total lysate) […]
(§12) samples. […]

PGAP1 = target: T2, PGAP1 (Homo sapiens, UniProt Q75T13)
T2 construct: endogenous in cells; host or cells: HEK293T
Method: as §1, §2, §3, §4, §5, §6, §7, §8, §9, §10, §11, §12

PPAT = target: T3, PPAT (Homo sapiens, UniProt Q06203)
T3 construct: endogenous in cells; host or cells: HEK293T
Method: as §1, §2, §3, §4, §5, §6, §7, §8, §9, §10, §11, §12

SRP68 = target: T4, SRP68 (Homo sapiens, UniProt Q9UHB9)
T4 construct: endogenous in cells; host or cells: HEK293T
Method: as §1, §2, §3, §4, §5, §6, §7, §8, §9, §10, §11, §12

ABHD6 = target: T5, ABHD6 (Homo sapiens, UniProt Q9BV23)
T5 construct: endogenous in cells; host or cells: HEK293T
Method: as §1, §2, §3, §4, §5, §6, §7, §8, §9, §10, §11, §12

ALDH1A1 = target: T6, ALDH1A1 (Homo sapiens, UniProt P00352)
T6 construct: endogenous in cells; host or cells: HEK293T
Method: as §1, §2, §3, §4, §5, §6, §7, §8, §9, §10, §11, §12

ALDH3A2 = target: T7, ALDH3A2 (Homo sapiens, UniProt P51648)
T7 construct: endogenous in cells; host or cells: HEK293T
Method: as §1, §2, §3, §4, §5, §6, §7, §8, §9, §10, §11, §12

ALDH9A1 = target: T8, ALDH9A1 (Homo sapiens, UniProt P49189)
T8 construct: endogenous in cells; host or cells: HEK293T
Method: as §1, §2, §3, §4, §5, §6, §7, §8, §9, §10, §11, §12

FAAH = target: T9, FAAH (Homo sapiens, UniProt O00519)
T9 construct: endogenous in cells; host or cells: HEK293T
Method: as §1, §2, §3, §4, §5, §6, §7, §8, §9, §10, §11, §12

FAAH2 = target: T10, FAAH2 (Homo sapiens, UniProt Q6GMR7)
T10 construct: endogenous in cells; host or cells: HEK293T
Method: as §1, §2, §3, §4, §5, §6, §7, §8, §9, §10, §11, §12

MRPS2 = target: T11, MRPS2 (Homo sapiens, UniProt Q9Y399)
T11 construct: endogenous in cells; host or cells: HEK293T
Method: as §1, §2, §3, §4, §5, §6, §7, §8, §9, §10, §11, §12

NIT1 = target: T12, NIT1 (Homo sapiens, UniProt Q86X76)
T12 construct: endogenous in cells; host or cells: HEK293T
Method: as §1, §2, §3, §4, §5, §6, §7, §8, §9, §10, §11, §12

[1] = IMP-2586 labelling vs DMSO, 30 nM, 10 min, HEK293T (Table S4, Fig.5c)
[2] = IMP-2587 labelling vs DMSO, 30 nM, 10 min, HEK293T (Table S2, Fig.5a)
[3] = compound 1 out-competition with IMP-2587 labelling, HEK293T (Table S3, Fig.5b)
[4] = compound 3 out-competition with IMP-2586 labelling, HEK293T (Table S5, Fig.5d)

T9 sequence (O00519 whole entry): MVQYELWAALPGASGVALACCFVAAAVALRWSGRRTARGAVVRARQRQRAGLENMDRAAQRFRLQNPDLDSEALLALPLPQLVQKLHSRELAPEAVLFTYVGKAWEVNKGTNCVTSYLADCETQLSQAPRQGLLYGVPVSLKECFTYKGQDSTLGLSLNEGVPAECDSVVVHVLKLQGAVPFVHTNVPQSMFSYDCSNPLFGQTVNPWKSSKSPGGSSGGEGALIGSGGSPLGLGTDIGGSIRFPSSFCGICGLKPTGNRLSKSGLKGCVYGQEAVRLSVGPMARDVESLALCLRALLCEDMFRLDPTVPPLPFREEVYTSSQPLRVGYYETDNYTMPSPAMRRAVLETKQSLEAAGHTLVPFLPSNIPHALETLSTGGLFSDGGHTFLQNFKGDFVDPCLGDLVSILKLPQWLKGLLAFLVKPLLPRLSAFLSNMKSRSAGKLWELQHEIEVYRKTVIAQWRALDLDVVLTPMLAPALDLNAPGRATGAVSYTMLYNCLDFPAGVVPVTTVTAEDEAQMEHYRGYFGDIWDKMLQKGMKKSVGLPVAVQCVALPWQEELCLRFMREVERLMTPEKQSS
T6 sequence (P00352 whole entry): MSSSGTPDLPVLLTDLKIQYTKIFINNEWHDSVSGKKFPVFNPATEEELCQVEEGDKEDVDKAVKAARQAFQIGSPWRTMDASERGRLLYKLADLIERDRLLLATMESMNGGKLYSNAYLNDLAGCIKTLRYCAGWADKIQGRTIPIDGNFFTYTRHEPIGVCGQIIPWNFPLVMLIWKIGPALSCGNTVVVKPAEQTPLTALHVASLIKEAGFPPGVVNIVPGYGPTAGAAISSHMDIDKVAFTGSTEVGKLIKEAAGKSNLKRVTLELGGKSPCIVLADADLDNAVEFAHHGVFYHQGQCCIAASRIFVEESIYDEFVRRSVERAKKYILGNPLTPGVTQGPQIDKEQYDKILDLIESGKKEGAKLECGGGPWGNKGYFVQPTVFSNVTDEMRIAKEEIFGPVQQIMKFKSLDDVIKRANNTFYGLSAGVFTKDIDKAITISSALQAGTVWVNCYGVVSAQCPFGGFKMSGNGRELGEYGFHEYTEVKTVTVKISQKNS
T1 sequence (Q99497 whole entry): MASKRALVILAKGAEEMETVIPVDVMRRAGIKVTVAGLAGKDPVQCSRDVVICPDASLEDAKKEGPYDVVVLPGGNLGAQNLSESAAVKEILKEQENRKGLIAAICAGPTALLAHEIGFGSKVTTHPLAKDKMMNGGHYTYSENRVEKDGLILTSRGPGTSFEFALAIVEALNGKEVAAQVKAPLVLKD
T3 sequence (Q06203 12-517): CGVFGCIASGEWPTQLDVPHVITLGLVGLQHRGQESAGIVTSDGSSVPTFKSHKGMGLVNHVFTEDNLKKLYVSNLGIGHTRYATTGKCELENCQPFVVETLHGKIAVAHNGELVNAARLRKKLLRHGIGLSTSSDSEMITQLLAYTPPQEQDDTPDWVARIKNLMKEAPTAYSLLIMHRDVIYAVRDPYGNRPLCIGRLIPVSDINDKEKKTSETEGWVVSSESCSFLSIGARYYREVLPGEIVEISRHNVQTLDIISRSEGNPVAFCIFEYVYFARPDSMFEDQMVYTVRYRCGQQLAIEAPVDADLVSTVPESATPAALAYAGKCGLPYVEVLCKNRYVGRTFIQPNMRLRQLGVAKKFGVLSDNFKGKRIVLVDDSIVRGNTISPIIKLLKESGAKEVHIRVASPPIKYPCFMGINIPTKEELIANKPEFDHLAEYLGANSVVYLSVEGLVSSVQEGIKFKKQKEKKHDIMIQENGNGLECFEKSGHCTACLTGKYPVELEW
T12 sequence (Q86X76 14-327): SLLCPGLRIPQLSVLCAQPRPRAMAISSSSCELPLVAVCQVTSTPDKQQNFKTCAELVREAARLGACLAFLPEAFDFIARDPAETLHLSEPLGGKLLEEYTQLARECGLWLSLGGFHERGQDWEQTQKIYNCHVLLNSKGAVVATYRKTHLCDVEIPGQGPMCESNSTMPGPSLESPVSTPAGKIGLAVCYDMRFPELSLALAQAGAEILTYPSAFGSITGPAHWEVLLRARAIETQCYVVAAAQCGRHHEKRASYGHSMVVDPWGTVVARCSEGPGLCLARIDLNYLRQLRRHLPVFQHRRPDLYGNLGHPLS
T5 sequence (Q9BV23 whole entry): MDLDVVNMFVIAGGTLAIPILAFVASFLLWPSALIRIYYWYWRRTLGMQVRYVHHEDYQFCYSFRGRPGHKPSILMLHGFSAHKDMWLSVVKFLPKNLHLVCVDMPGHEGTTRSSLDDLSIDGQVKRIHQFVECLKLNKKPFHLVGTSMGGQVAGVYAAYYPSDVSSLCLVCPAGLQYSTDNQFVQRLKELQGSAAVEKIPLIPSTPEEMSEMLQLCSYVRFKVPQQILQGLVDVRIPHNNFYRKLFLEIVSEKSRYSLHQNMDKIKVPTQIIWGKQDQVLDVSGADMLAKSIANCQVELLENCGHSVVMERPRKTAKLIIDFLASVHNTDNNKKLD
T7 sequence (P51648 whole entry): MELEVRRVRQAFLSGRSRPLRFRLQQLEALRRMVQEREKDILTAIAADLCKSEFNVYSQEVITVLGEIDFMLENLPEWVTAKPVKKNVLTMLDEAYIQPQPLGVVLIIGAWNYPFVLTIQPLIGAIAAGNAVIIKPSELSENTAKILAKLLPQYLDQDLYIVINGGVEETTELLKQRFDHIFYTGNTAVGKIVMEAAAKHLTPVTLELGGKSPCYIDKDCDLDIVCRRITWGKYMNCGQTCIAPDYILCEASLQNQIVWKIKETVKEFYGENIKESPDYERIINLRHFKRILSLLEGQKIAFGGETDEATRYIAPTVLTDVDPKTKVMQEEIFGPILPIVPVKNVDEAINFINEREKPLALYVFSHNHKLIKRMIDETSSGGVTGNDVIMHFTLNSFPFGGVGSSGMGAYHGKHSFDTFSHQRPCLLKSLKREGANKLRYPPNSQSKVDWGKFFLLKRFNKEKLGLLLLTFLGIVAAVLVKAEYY
T10 sequence (Q6GMR7 whole entry): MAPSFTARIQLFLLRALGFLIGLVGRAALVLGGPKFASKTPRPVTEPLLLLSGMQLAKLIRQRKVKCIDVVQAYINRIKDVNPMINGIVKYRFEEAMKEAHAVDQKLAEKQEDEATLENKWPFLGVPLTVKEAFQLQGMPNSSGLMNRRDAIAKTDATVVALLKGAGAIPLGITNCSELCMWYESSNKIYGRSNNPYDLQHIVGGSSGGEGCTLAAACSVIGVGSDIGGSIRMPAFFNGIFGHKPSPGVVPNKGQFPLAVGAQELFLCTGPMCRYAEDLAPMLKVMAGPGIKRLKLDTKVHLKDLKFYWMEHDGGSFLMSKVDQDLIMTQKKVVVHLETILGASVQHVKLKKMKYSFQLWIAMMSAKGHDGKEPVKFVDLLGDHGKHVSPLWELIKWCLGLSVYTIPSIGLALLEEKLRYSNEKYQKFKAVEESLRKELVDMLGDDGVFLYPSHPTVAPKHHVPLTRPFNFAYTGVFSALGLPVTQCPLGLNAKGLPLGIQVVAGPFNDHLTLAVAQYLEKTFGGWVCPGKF
T4 sequence (Q9UHB9 whole entry): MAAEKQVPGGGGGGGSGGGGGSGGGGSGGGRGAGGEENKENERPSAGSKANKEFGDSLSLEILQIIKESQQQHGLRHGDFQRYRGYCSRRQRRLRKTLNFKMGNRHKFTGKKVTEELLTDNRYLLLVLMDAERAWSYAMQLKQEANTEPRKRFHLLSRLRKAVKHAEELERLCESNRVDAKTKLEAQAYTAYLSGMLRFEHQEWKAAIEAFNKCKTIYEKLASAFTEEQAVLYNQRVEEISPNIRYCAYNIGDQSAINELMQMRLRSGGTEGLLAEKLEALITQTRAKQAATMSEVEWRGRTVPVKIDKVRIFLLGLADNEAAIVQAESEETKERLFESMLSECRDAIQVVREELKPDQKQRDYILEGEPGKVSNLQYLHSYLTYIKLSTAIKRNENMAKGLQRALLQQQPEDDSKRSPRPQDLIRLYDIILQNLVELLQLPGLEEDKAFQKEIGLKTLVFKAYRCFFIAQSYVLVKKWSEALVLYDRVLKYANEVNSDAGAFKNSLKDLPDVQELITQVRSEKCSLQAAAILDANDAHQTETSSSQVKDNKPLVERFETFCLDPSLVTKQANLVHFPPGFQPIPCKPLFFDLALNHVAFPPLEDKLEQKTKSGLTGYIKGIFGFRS
T8 sequence (P49189 whole entry): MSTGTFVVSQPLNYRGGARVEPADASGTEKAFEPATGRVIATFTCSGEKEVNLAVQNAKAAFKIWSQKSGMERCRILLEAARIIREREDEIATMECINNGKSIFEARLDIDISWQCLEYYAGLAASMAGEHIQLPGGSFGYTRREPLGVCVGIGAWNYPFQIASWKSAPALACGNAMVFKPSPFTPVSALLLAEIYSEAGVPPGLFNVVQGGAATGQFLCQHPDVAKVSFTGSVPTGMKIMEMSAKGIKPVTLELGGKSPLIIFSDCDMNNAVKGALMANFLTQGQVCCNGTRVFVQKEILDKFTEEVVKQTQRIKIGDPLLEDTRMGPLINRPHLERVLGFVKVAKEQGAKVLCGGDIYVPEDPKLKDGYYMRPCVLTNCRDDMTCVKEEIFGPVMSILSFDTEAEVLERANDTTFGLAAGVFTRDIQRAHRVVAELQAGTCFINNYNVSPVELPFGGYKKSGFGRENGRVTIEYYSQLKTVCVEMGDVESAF

## N#CN1CC[C@@H](NC(=O)c2cc(-c3ccccc3Oc3ccc(N=[N+]=[N-])cc3)n[nH]2)C1 [IMP-2586]
PARK7; IMP-2586 labelling vs DMSO, HEK293T (Table S4, Fig.5c)
  Difference (log2 fold change of enrichment): 1.30
PGAP1; [1]
  Difference (log2 fold change of enrichment): 2.66
PPAT; [1]
  Difference (log2 fold change of enrichment): 0.83
SRP68; [1]
  Difference (log2 fold change of enrichment): 0.45

## C#Cc1cccc(-c2cc(NC(=O)CC3CCN(C#N)C3)on2)c1 (stereo not drawn) [IMP-2587]
ABHD6; [2]
  Difference (log2 fold change of enrichment): 2.06
ALDH1A1; [2]
  Difference (log2 fold change of enrichment): 2.95
ALDH3A2; [2]
  Difference (log2 fold change of enrichment): 2.95
ALDH9A1; [2]
  Difference (log2 fold change of enrichment): 1.70
FAAH; [2]
  Difference (log2 fold change of enrichment): 3.97
FAAH2; [2]
  Difference (log2 fold change of enrichment): 4.10
MRPS2; [2]
  Difference (log2 fold change of enrichment): 2.58
NIT1; [2]
  Difference (log2 fold change of enrichment): 2.01
PARK7; IMP-2587 labelling vs DMSO, HEK293T (Table S2, Fig.5a)
  Difference (log2 fold change of enrichment): 1.32

## N#CN1CC[C@H](CC(=O)Nc2cc(-c3cccc(Cl)c3)no2)C1 [compound 1, reference compound]
ABHD6; [3]
  Difference (log2 fold change of enrichment): -1.95
ALDH1A1; [3]
  Difference (log2 fold change of enrichment): -2.59
ALDH3A2; [3]
  Difference (log2 fold change of enrichment): -1.88
ALDH9A1; [3]
  Difference (log2 fold change of enrichment): -1.60
FAAH; [3]
  Difference (log2 fold change of enrichment): -3.46
FAAH2; [3]
  Difference (log2 fold change of enrichment): -3.82
MRPS2; [3]
  Difference (log2 fold change of enrichment): -2.58
NIT1; [3]
  Difference (log2 fold change of enrichment): -1.86

## N#CN1CC[C@@H](NC(=O)c2cc(-c3ccccc3Oc3ccccc3)n[nH]2)C1 [compound 3, reference compound]
PGAP1; [4]
  Difference (log2 fold change of enrichment): -2.38
PPAT; [4]
  Difference (log2 fold change of enrichment): -0.44
SRP68; [4]
  Difference (log2 fold change of enrichment): -0.40
